Patent publication US4921863A, “Cyclic amine derivatives” (Eisai Co., Ltd., priority 1988, dated 1990)

Tested on: learning disorder after ischemia
Assay: Effect of remedying learning disorder after ischemia (passive avoidance method)
Assay type: in vivo, Mongolian gerbils
Conditions: p.o.; for Latent time (average ± S.E.): 1 h before 5-min ischemia, upper limit 300 sec, normal 246.5, control 71.5 sec; for Recovery ratio: normal = 100, control = 0
Procedure: Common carotid arteries on both sides of Mongolian gerbils (17 to 21 weeks old) were clipped with Skoville clamps without anesthesia and the clamps were removed after 5 min to realize a short period of ischemia. Twenty-four hours after the removal of the clamps, these animals were subjected to learning and memory tests were conducted after an additional 24 h. The learning and memory functions were examined by the passive avoidance method with a modification of a device reported by Jarvik and Kopp in "Psychological Reports", 21, 221 to 224 (1967). The device had two chambers, […] chamber A and a dark chamber B. In the tests, the animals were placed in the well-lighted chamber A and an electric current (A.C., 1.6 mA) was applied to a grid on the floor of the dark chamber B for 5 min when they entered the chamber B. On the next day, the animals subjected to the learning were placed in the chamber A and the time (latent time) which had elapsed before they entered the chamber B was measured. The upper limit of the latent time was set at 300 sec. The compound was administered in the form of a 5% suspension in acacia orally one hour before causing the ischemia. A 5% acacia solution was administered to the control group.

In the case of Cl.O=C(CN1CCC(C(=O)c2ccc(F)cc2)CC1)c1ccc2ccccc2c1 [Example 12, 2-[4-(p-Fluorobenzoyl)-1-piperidinyl]-2'-acetonaphthone hydrochloride], the “Latent time (average ± S.E.)” value (3 mg/kg) is reported as 168.8 ± 23.0 s, the Recovery ratio (3 mg/kg) is reported as 56% and the “Latent time (average ± S.E.)” value (10 mg/kg) is reported as 196.8 ± 22.3 s. For the same molecule, the Recovery ratio (10 mg/kg) was 72%, the “Latent time (average ± S.E.)” value (30 mg/kg) was 196.3 ± 37.0 s and the Recovery ratio (30 mg/kg) was 71%.
In the case of c1ccc(CC2CCN(CCc3ccc4ccccc4c3)CC2)cc1 [Example 73], the “Latent time (average ± S.E.)” value (10 mg/kg) is reported as 193.1 ± 35.3 s, the Recovery ratio (10 mg/kg) is reported as 69% and the “Latent time (average ± S.E.)” value (30 mg/kg) is reported as 80.1 ± 28.2 s. For the same molecule, the Recovery ratio (30 mg/kg) was 5%.
With O=C(CN1CCC(=Cc2ccc(F)cc2)CC1)c1ccc2ccccc2c1 [Example 74] the “Latent time (average ± S.E.)” value (3 mg/kg) was 110.2 ± 29.0 s, the Recovery ratio (3 mg/kg) was 22% and the “Latent time (average ± S.E.)” value (10 mg/kg) was 123.2 ± 24.3 s. The Recovery ratio (10 mg/kg) was 30%, the “Latent time (average ± S.E.)” value (30 mg/kg) was 129.2 ± 23.8 s and the Recovery ratio (30 mg/kg) was 33%.
